The results in this text go back to ChEMBL document CHEMBL1201862, “PubChem BioAssay data set” (2004).

Structures are written as SMILES.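 Exposure lasted 48 hours, with cells grown in 96-well plates and compounds tested at five concentrations. The concentration for 50% growth inhibition is given as GI50.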 The source made the active and inactive calls. Cut-off read from the data, not from the text of the source: active = GI50 up to about 1.1 µM and inactive = higher. Bounds are passed on as bounds.

Among the test systems are HCT-116; MOLT-4; SK-MEL-2; SNB-19; SK-MEL-28; HCT-15; OVCAR-8; NCI-H23; K562; NCI-H226; HL-60; A498; NCI-H460; SK-OV-3; EKVX; MDA-N.
Test in all cases: growth of human tumour cells (NCI), 48 h

As to `O=C(CNC(=O)OCc1ccccc1)NCCCCC(NC(=O)OCc1ccccc1)C(=O)NC(CCCCNC(=O)CNC(=O)OCc1ccccc1)C(=O)OCc1ccccc1` (stereo not given), the GI50 with HCT-116 was > 62.5 µM (inactive); in the experiment with MOLT-4, > 62.5 µM (inactive); with SK-MEL-2, > 62.5 µM (inactive); in the experiment on SNB-19, > 62.5 µM (inactive); with SK-MEL-28, > 62.5 µM (inactive); in the experiment on HCT-15, over 62.5 µM. Moreover, the GI50 in the experiment with OVCAR-8, with NCI-H23, with K562, in the experiment on NCI-H226, in the experiment with HL-60 and in the experiment on A498 was > 62.5 µM (inactive) in each case. Further, the GI50 with NCI-H460 is > 62.5 µM (inactive).

In the case of `COc1ccc(/C=C2/CSCC3=C2N=C(S)NC3c2ccc(OC)c(OC)c2OC)c(OC)c1OC` (stereo not given), the GI50 was 49.7 µM (inactive) in the experiment with SK-OV-3; 8.09 µM (inactive) in the experiment on HCT-116; 3.05 µM (inactive) with MOLT-4; 22.8 µM (inactive) in the experiment with SK-MEL-2; 20.1 µM (inactive) in the experiment with SNB-19; 51.3 µM (inactive) in the experiment with EKVX. Also, the GI50 in the experiment with SK-MEL-28 was 18.4 µM (inactive); in the experiment with HCT-15, 25.7 µM; in the experiment on OVCAR-8, 7.52 µM (inactive); with NCI-H23 it was 18.9 µM (inactive); with K562 it was 7.6 µM (inactive); in the experiment with NCI-H226 it was 35 µM (inactive). The GI50 is 6.34 µM (inactive) with HL-60, 19 µM (inactive) with A498 and 27.6 µM (inactive) with NCI-H460.

With `O=C(CSCC(=O)N/N=C/c1ccncc1)N/N=C/c1ccncc1`, the GI50 in the experiment on SK-OV-3, in the experiment on HCT-116, with MOLT-4, in the experiment with SK-MEL-2, in the experiment with SNB-19 and in the experiment with EKVX was > 100 µM (inactive) throughout. Also, the GI50 in the experiment on SK-MEL-28 is > 100 µM (inactive); in the experiment on HCT-15, over 100 µM; in the experiment on OVCAR-8, > 100 µM (inactive); in the experiment on NCI-H23, > 100 µM (inactive); in the experiment on K562 it was > 100 µM (inactive); in the experiment with NCI-H226, > 100 µM (inactive). In addition, the GI50 in the experiment on HL-60, in the experiment on A498 and in the experiment with NCI-H460 was > 100 µM (inactive) throughout.

For the molecule `COC(=O)c1cc(/C=C/C(=O)Cc2ccccc2)cn1S(=O)(=O)c1ccccc1`, the GI50 in the experiment on SK-OV-3, in the experiment with HCT-116, in the experiment on MOLT-4, in the experiment with SK-MEL-2, in the experiment on SNB-19 and in the experiment on MDA-N was > 100 µM (inactive) in each case. Also, the GI50 in the experiment on EKVX was > 100 µM (inactive); in the experiment with HCT-15, 7.38 µM; in the experiment with OVCAR-8, > 100 µM (inactive); in the experiment on NCI-H23, > 100 µM (inactive); in the experiment on K562, > 100 µM (inactive); with HL-60 it was > 100 µM (inactive). In addition, in the experiment on NCI-H460, the GI50 was > 100 µM (inactive).

Take `N#C/C(=C/C=C/c1ccco1)C(N)=O`: the GI50 with SK-OV-3 is > 10 µM (inactive); in the experiment on SK-MEL-2, > 10 µM (inactive); in the experiment on MDA-N, > 10 µM (inactive); with EKVX it was > 10 µM (inactive); in the experiment on SK-MEL-28 it was > 10 µM (inactive); in the experiment with HCT-15, over 10 µM. Moreover, the GI50 in the experiment with OVCAR-8, in the experiment with NCI-H226 and in the experiment on NCI-H460 was > 10 µM (inactive) in each case.

As to `C[n+]1cn(-c2ccc([N+](=O)[O-])cn2)c2ccccc21`, the GI50 in the experiment on SK-OV-3, with HCT-116, in the experiment with MOLT-4, in the experiment with SK-MEL-2, in the experiment on SNB-19 and in the experiment on EKVX was > 100 µM (inactive) in each case. Besides, the GI50 in the experiment on SK-MEL-28 is > 100 µM (inactive); with HCT-15, over 100 µM; in the experiment with OVCAR-8 it was > 100 µM (inactive); with NCI-H23, > 100 µM (inactive); with K562, > 100 µM (inactive); with NCI-H226 it was > 100 µM (inactive). Also, the GI50 with HL-60, with A498 and with NCI-H460 was > 100 µM (inactive) each time.
